As usually defined, the inhibition in vivo is the share of the control response that was lost under treatment. A lower inhibition in vivo goes with a response near the control.

The source made the active and inactive calls. The calls are words filed in the database; no cut-off is given here.

The record followed here is ChEMBL document CHEMBL1150696, “Griffonianone D, an isoflavone with anti-inflammatory activity from the root bark of Millettia griffoniana” (2003).

The subject of experiment [1] is Mus musculus. Kind of experiment: Antiinflammatory activity against PLA2-induced Swiss mouse paw edema at 5 mg/kg, ip administered 30 mins before PLA2 challenge.
Experiment [2] concerns Mus musculus. Kind of experiment: Antiinflammatory activity against PLA2-induced Swiss mouse paw edema at 5 mg/kg, ip administered 30 mins before PLA2 challenge. It counts as functional. The following applies: route intraperitoneal.
For experiment [3], the system named is Mus musculus. Kind of experiment: Antiinflammatory activity against PLA2-induced Swiss mouse paw edema at 5 mg/kg, ip administered 60 mins before PLA2 challenge. It counts as functional. The following applies: route intraperitoneal.
Experiment [4] addresses T1, Polyunsaturated fatty acid 5-lipoxygenase (Rattus norvegicus) (UniProt P12527).
T1 sequence (whole entry): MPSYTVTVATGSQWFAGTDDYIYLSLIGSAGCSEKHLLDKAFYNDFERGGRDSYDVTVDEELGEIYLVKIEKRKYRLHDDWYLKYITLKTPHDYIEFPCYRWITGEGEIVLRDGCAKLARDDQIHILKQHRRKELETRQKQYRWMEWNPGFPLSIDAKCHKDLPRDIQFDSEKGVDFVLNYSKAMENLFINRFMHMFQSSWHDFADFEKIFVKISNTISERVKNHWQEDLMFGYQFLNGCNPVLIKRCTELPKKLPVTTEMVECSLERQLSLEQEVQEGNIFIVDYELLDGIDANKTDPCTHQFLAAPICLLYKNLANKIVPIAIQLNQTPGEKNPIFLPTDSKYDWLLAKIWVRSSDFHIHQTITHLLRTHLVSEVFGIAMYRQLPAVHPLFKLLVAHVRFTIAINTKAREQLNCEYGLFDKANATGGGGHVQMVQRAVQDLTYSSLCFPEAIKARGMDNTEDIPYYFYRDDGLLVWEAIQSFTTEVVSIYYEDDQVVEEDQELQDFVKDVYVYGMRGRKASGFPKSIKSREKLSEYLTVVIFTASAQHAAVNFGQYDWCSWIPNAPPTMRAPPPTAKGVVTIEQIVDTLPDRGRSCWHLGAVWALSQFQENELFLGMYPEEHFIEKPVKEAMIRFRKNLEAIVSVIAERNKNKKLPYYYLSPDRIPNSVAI
Kind of experiment: Inhibition of 5-lipoxygenase in rat leukocytes assessed as inhibition of calcium ionophore A-23187/calcium-stimulated LTB4 production. It counts as cell-based.

Experiment [5] concerns the target Prostaglandin G/H synthase 1 (Homo sapiens) (UniProt P23219). Kind of experiment: Inhibition of cyclooxygenase 1 in human platelet assessed as 12-hydroxyheptadecatrienoic acid production.
Experiment [6] concerns Mus musculus. Kind of experiment: Antiinflammatory activity against TPA-induced Swiss mouse ear edema assessed as reduction in ear swelling at 0.25 mg/ear topically after 4 hrs relative to control. It counts as functional.
Experiment [7] deals with Mus musculus. Kind of experiment: Antiinflammatory activity against carrageenan-induced Swiss mouse paw edema at 10 mg/kg, po. The experiment is classed as functional.
Experiment [8] concerns Mus musculus. Kind of experiment: Antiinflammatory activity against TPA-induced Swiss mouse ear edema assessed as reduction in ear swelling at 0.5 mg/ear topically after 4 hrs relative to control. It counts as functional.

Prostaglandin G/H synthase 1 (Homo sapiens), sequence (P23219 whole entry): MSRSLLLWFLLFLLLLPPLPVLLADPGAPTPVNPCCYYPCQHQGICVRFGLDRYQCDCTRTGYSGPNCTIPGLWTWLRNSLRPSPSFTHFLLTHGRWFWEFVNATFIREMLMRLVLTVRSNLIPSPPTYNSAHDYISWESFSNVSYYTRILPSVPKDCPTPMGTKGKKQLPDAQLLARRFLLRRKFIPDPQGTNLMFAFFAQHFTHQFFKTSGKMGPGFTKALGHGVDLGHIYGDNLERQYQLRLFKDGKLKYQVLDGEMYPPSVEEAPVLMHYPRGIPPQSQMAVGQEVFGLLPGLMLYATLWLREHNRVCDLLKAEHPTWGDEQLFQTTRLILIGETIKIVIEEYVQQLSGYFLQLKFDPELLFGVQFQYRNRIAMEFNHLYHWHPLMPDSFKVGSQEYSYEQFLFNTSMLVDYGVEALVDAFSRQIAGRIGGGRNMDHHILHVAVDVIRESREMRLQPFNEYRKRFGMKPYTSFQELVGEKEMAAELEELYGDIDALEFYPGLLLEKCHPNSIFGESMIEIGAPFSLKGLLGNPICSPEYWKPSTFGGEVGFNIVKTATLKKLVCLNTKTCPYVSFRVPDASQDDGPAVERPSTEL

As for `CN1CCC(=C2c3ccccc3C=Cc3ccccc32)CC1` [CYPROHEPTADINE], the inhibition in vivo at 5 mg/kg with Mus musculus [1] and with Mus musculus [2] was 82% each time.
As for `COc1ccc(-c2coc3cc(OC/C=C(\C)CCC(O)C(C)(C)O)ccc3c2=O)cc1` (centres undefined) [GRIFFONIANONE D], the values for the inhibition in vivo at 5 mg/kg in the experiment on Mus musculus [3] and in the experiment on Mus musculus [2] were 30% and 42%, respectively. Further, the result in experiment [4] and in experiment [5] was inactive. Further, in the experiment with Mus musculus [6], the “inhibition (INH)” value is on record as 77%.
On to `COc1ccc2c(c1)c(CC(=O)O)c(C)n2C(=O)c1ccc(Cl)cc1` [INDOMETHACIN], for which testing at 10 mg/kg in the experiment with Mus musculus [7] gave an inhibition in vivo of 60%. Moreover, the “inhibition (INH)” value with Mus musculus [8] came out at 82%.
